Results reported in PubChem BioAssay AID1963864 (Molecular Pharmacology Branch, DTP, NCI, 2024).

Test system: KRAS PDC multicell spheroid viability
Assay: Anticancer human tumor 521955-158-R6-J3-PDC patient-derived pancreatic carcinoma cell line growth inhibition [KRAS2]
Conditions: for IC50: curve of first compound; for viability, T/C: stronger effect = lower value
Text: Multicellular complex tumor spheroid response to RAS pathway inhibitors in combination with a targeted agents in patient-derived cell lines with oncogenic KRAS variants from multiple cancer types
A high-throughput screen of multi-cell type tumor spheroids was designed to identify active combinations of targeted small molecules and KRAS pathway inhibitors. Complex spheroids include a stromal component modeled by human endothelial cells (HUVEC) and fibroblasts modeled by human mesenchymal stem cells (MSCs). The concentration ranges selected for each drug and investigational agent were based upon clinically achievable concentrations if the clinical Cmax of the agent was known.
Compounds. The drugs and investigational agents: BI-3406 (NSC825286), BAY-293 (NSC824723), batoprotafib (TNO155; NSC825523), sotorasib (AMG 510; NSC818433), MRTX1257 (NSC819558), elimusertib (BAY 1895344; NSC800525), molibresib (GSK525762; NSC774829), temuterkib (LY3214996; NSC803410), venetoclax (NSC766270), alisertib (NSC759677), olaparib (NSC753686), talazoparib (NSC767125), erdafitinib (NSC781556), ipatasertib (NSC767898), cabozantinib (NSC761068), nintedanib (NSC756659), abemaciclib (NSC768073), docetaxel (NSC628503), trametinib (NSC758246), and sapanisertib (NSC764658) were obtained from the National Cancer Institute (NCI) Developmental Therapeutics Program Chemical Repository. The FDA-approved anticancer drug set is available from the Developmental Therapeutics Program. […] The stock solutions were prepared in dimethyl sulfoxide (DMSO, Sigma-Aldrich, St. Louis, MO, cat. D2650) at 800-fold the tested concentration and stored at -70 degrees C prior to their use. All drugs and investigational agents were tested over a range starting from a high concentration at or near the clinical Cmax and decreasing in half-log increments. If the clinical Cmax for an agent had not been determined, the highest concentration tested was 10 microM.
Cell Culture. All cells were maintained in an incubator at 37 degrees C and 5% CO2 with 95% humidity. The PDC lines were cultured according to standard operating procedures established by the NCI PDMR (https://pdmr.cancer.gov/sops/default.htm). Briefly, all PDCs were thawed and cultured in Matrigel-coated flasks prepared with a working solution of 1X Ham's F-12 nutrient mix, without supplementation (Invitrogen, Waltham, MA, cat. 11765054), 100 U/mL penicillin-streptomycin (Invitrogen, cat. 15140122), and 2.5% Matrigel (Corning Inc., Corning, NY, cat. 354248) for the first three passages. All PDCs were cultured in complete DMEM/F-12 media containing advanced DMEM/F-12 (Invitrogen, cat. 12634028), 4.9% defined fetal bovine serum, heat inactivated (HyClone Laboratories Inc., Logan, UT, cat. SH30070.03HI), 389 ng/mL hydrocortisone (Sigma-Aldrich, cat. H4001), 9.7 ng/mL human EGF recombinant protein (Invitrogen, cat. PHG0313), 23.4 microg/mL adenine (Sigma-Aldrich, cat. A2786), 97.3 U/mL penicillin-streptomycin (Invitrogen, cat. 15140122), 1.9 mM L-glutamine (Invitrogen, cat. 25030081), and 9.7 microM Y-27632 dihydrochloride (Tocris Bioscience, Bristol, United Kingdom, cat. 1254). The PDCs were cultured in complete DMEM/F12 media without 9.7 microM Y-27632 dihydrochloride for at least two passages prior to the screen. The established cell line HOP-62 was cultured in RPMI 1640 medium, HEPES (Invitrogen, cat. 22400105) with 10% defined fetal bovine serum (HyClone Laboratories Inc., cat. SH30070.03) and 2 mM L-glutamine (Invitrogen, cat. 25030081). The pooled donor HUVEC were cultured in endothelial cell growth medium 2 (PromoCell, Heidelberg, Germany, cat. C-22011) and the hMSC were cultured in mesenchymal stem cell growth medium 2 (PromoCell, cat. C-28009). For all experiments, HUVEC and hMSC were used at passages </=5, while the malignant cell lines were used at passages </=15. […]

[1] = second compound 0.1 µM, first compound 0.01 µM
[2] = second compound 0.1 µM, first compound 0.0316 µM
[3] = second compound 0.1 µM, first compound 0.1 µM
[4] = second compound 0.316 µM, first compound 0.01 µM
[5] = second compound 0.316 µM, first compound 0.0316 µM
[6] = second compound 0.316 µM, first compound 0.1 µM
[7] = second compound 1 µM, first compound 0.01 µM
[8] = second compound 1 µM, first compound 0.0316 µM
[9] = second compound 1 µM, first compound 0.1 µM
[10] = second compound 3.16 µM, first compound 0.01 µM
[11] = second compound 3.16 µM, first compound 0.0316 µM
[12] = second compound 3.16 µM, first compound 0.1 µM
[13] = second compound 10 µM, first compound 0.01 µM
[14] = second compound 10 µM, first compound 0.0316 µM
[15] = second compound 10 µM, first compound 0.1 µM
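Note: drug exposure lasted seven days.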
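Throughout, for viability, T/C: 100% = DMSO vehicle wells and lower means fewer viable cells.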

CC(=O)OC12COC1CC(O)C1(C)C(=O)C(O)C3=C(C)C(OC(=O)C(O)C(NC(=O)OC(C)(C)C)c4ccccc4)CC(O)(C(OC(=O)c4ccccc4)C21)C3(C)C (stereo not given) + C=CC(=O)N1CCN(c2nc(=O)n(-c3c(C)ccnc3C(C)C)c3nc(-c4c(O)cccc4F)c(F)cc23)C(C)C1
IC50 (second compound 0.1 µM): > 3160 nM
IC50 (second compound 0.316 µM): > 3160 nM
IC50 (second compound 1 µM): > 3160 nM
IC50 (second compound 3.16 µM): > 3160 nM
IC50 (second compound 10 µM): > 3160 nM
viability, T/C [1]: 86.2%
viability, T/C [2]: 74.1%
viability, T/C [3]: 77.7%
viability, T/C (second compound 0.1 µM, first compound 0.316 µM): 94.7%
viability, T/C (second compound 0.1 µM, first compound 1 µM): 94.3%
viability, T/C (second compound 0.1 µM, first compound 3.16 µM): 114%
viability, T/C [4]: 86%
viability, T/C [5]: 82.5%
viability, T/C [6]: 74.4%
viability, T/C (second compound 0.316 µM, first compound 0.316 µM): 77.1%
viability, T/C (second compound 0.316 µM, first compound 1 µM): 88.4%
viability, T/C (second compound 0.316 µM, first compound 3.16 µM): 113%
viability, T/C [7]: 90.6%
viability, T/C [8]: 87%
viability, T/C [9]: 81.4%
viability, T/C (second compound 1 µM, first compound 0.316 µM): 62.5%
viability, T/C (second compound 1 µM, first compound 1 µM): 65.6%
viability, T/C (second compound 1 µM, first compound 3.16 µM): 69%
viability, T/C [10]: 97.3%
viability, T/C [11]: 88.1%
viability, T/C [12]: 90.3%
viability, T/C (second compound 3.16 µM, first compound 0.316 µM): 101%
viability, T/C (second compound 3.16 µM, first compound 1 µM): 98.4%
viability, T/C (second compound 3.16 µM, first compound 3.16 µM): 104%
viability, T/C [13]: 98.9%
viability, T/C [14]: 92.2%
viability, T/C [15]: 90.1%
viability, T/C (second compound 10 µM, first compound 0.316 µM): 73.2%
viability, T/C (second compound 10 µM, first compound 1 µM): 86.8%
viability, T/C (second compound 10 µM, first compound 3.16 µM): 76.8%

CN(C)C/C=C/C(=O)Nc1cc2c(Nc3ccc(F)c(Cl)c3)ncnc2cc1O[C@H]1CCOC1 + C=CC(=O)N1CCN(c2nc(=O)n(-c3c(C)ccnc3C(C)C)c3nc(-c4c(O)cccc4F)c(F)cc23)C(C)C1
IC50 (second compound 0.1 µM): > 100 nM
IC50 (second compound 0.316 µM): > 100 nM
IC50 (second compound 1 µM): > 100 nM
IC50 (second compound 3.16 µM): > 100 nM
IC50 (second compound 10 µM): > 100 nM
viability, T/C (second compound 0.1 µM, first compound 0.000316 µM): 101%
viability, T/C (second compound 0.1 µM, first compound 0.001 µM): 92.9%
viability, T/C (second compound 0.1 µM, first compound 0.00316 µM): 85.4%
viability, T/C [1]: 72.8%
viability, T/C [2]: 68.6%
viability, T/C [3]: 66.6%
viability, T/C (second compound 0.316 µM, first compound 0.000316 µM): 119%
viability, T/C (second compound 0.316 µM, first compound 0.001 µM): 112%
viability, T/C (second compound 0.316 µM, first compound 0.00316 µM): 79.9%
viability, T/C [4]: 81.7%
viability, T/C [5]: 71.2%
viability, T/C [6]: 66.3%
viability, T/C (second compound 1 µM, first compound 0.000316 µM): 113%
viability, T/C (second compound 1 µM, first compound 0.001 µM): 92.2%
viability, T/C (second compound 1 µM, first compound 0.00316 µM): 102%
viability, T/C [7]: 79.8%
viability, T/C [8]: 67.6%
viability, T/C [9]: 69.4%
viability, T/C (second compound 3.16 µM, first compound 0.000316 µM): 112%
viability, T/C (second compound 3.16 µM, first compound 0.001 µM): 97%
viability, T/C (second compound 3.16 µM, first compound 0.00316 µM): 83.7%
viability, T/C [10]: 79%
viability, T/C [11]: 69.6%
viability, T/C [12]: 69.7%
viability, T/C (second compound 10 µM, first compound 0.000316 µM): 73.2%
viability, T/C (second compound 10 µM, first compound 0.001 µM): 109%
viability, T/C (second compound 10 µM, first compound 0.00316 µM): 66.7%
viability, T/C [13]: 62.3%
viability, T/C [14]: 58.5%
viability, T/C [15]: 65.3%
